{"source": "paper PMC4627284", "about": "“High-throughput simultaneous screen and counterscreen identifies homoharringtonine as synthetic lethal with von Hippel-Lindau loss in renal cell carcinoma” (Oncotarget, 2015)", "key": {"[1]": {"tested_on": "XP144 tumorgraft line", "experiment": "ccRCC tumorgraft model, line XP144", "assay_type": "in vivo, NOD/SCID mice", "settings": "0.7 mg/kg by gavage twice daily", "procedure": "(§1) We selected 6 independently-derived ccRCC tumorgraft lines that were confirmed to have VHL mutation. The mice (3-5 mice per tumorgraft line) were treated with either HHT (0.7 mg/kg), vehicle (as a negative control), or rapamycin (0.5 mg/kg; as a positive control). In total, 65 tumorgraft bearing mice were evaluated for these experiments in time courses lasting ~28 days, with tumor growth measured every 3 or 4 days.\n(§2) Figure 3 HHT inhibits tumor growth in a ccRCC tumorgraft model A-F, Tumorgraft lines were treated with vehicle control, HHT (0.7 mg/kg), rapamycin (0.5 mg/kg), (or the combination, where indicated) and tumor growth was measured on the indicated days. Day 0 represents the first day of treatment.\nTumorgrafts were generated and propagated as described previously, with tumor samples implanted subcutaneously into the flank of the mouse for drug trials. Briefly, 4- to 8-week-old NOD/SCID mice were anesthetized with isoflurane and implanted subcutaneously with 64 mm^3 tumor fragments (cohorts 2-20). Once tumors reached an average of at least ~250 mm^3, drug treatment was begun. […] Tumor size (volume) was measured twice weekly and was obtained by multiplying tumor length, width, and depth using calipers. To assess toxicity, mouse weight was monitored once weekly."}, "[2]": {"tested_on": "VHL-mutant patient-derived ccRCC tumorgraft lines", "experiment": "ccRCC tumorgraft model, six VHL-mutant tumorgraft lines", "assay_type": "in vivo, NOD/SCID mice", "procedure": "as §1, §2\n(§3) Tumorgrafts were generated and propagated as described previously, with tumor samples implanted subcutaneously into the flank of the mouse for drug trials. Briefly, 4- to 8-week-old NOD/SCID mice were anesthetized with isoflurane and implanted subcutaneously with 64 mm^3 tumor fragments (cohorts 2-20). Once tumors reached an average of at least ~250 mm^3, drug treatment was begun. The mice were treated with vehicle, 0.7 mg/kg homoharringtonine (HHT) via gavage twice daily, or 0.5 mg/kg rapamycin given by IP injection once every 48 hours. Tumor size (volume) was measured twice weekly and was obtained by multiplying tumor length, width, and depth using calipers. To assess toxicity, mouse weight was monitored once weekly.\nSections from tumors were stained with hematoxylin and eosin (H&E) as described previously."}, "[3]": {"experiment": "Toxicity in tumorgraft-bearing mice (mouse weight, signs)", "assay_type": "in vivo", "settings": "0.7 mg/kg by gavage twice daily, XP26 and XP144 cohorts", "excerpt": "C. and D. Average weight of XP26 and XP144 cohort mice in grams (g) taken at the indicated days prior to and over the course of the indicated drug treatment. Day 0 represents the first day of treatment.\nas §3"}, "[4]": {"tested_on": "VHL-deficient 786-O cells", "experiment": "Cell death by trypan blue exclusion assay", "assay_type": "cell-based, human", "settings": "36 hours", "procedure": "(§4) Figure 2 Homoharringtonine (HHT) preferentially induces cell death in VHL-deficient 786-O cells A. 786-O cells with VHL mutation (green) or with VHL-reconstituted (red) were treated with different concentrations of HHT (0, 25, 50, or 100 nM) for 0, 6, 12, 24, 36, or 48 hours, and cell death was measured by trypan blue exclusion assay (n = 3 for each concentration and time point; *p < 0.05, **p < 0.001, ***p < 0.0001 between 786-O EV cells and 786-O with VHL reconstituted at the same concentration and time point). B. Western blot analysis of 786-O EV^GFP (EV) or VHL^mCh (VHL) cells treated with 100 nM HHT for 0, 3, 6, 12, or 24 hours. Blots were probed for Bcl-xL and Caspase 9, and α-Tubulin as loading control. Arrow indicates the cleaved Caspase 9 product."}, "[5]": {"tested_on": "VHL-reconstituted 786-O cells", "experiment": "Cell death by trypan blue exclusion assay", "assay_type": "cell-based, human", "settings": "36 hours", "procedure": "as §4"}, "[6]": {"settings": "cited from earlier work"}}, "data": [{"smiles": "COC(=O)C[C@](O)(CCCC(C)(C)O)C(=O)O[C@@H]1C(OC)=C[C@]23CCCN2CCc2cc4c(cc2[C@H]13)OCO4", "note": "[HHT, homoharringtonine]", "values": [{"measurement": "tumor weight smaller than vehicle-treated", "setting": "[1]", "value": 32, "unit": "%"}, {"measurement": "tumor growth inhibition (tumor volume) vs vehicle", "setting": "[1]; ~28 days", "value": 43.0, "unit": "%"}, {"measurement": "tumorgraft lines with tumor growth inhibited", "setting": "[2]; 0.7 mg/kg by gavage twice daily, lines responding / lines tested", "value": "2/6"}, {"measurement": "synergistic effects with rapamycin in the tumorgrafts", "setting": "[2]; HHT 0.7 mg/kg plus rapamycin 0.5 mg/kg", "value": "did not observe synergistic effects"}, {"measurement": "histology of harvested tumors (H&E)", "setting": "[2]; XP26 and XP144 cohorts", "value": "induced tumor cell necrosis"}, {"measurement": "body weight of treated mice", "setting": "[3]", "value": "maintained similar body weight compared to controls"}, {"measurement": "VHL-deficient cells killed", "setting": "[4]; 50 nM", "value": "30-40%"}, {"measurement": "dead VHL-deficient cells", "setting": "[4]; 100 nM", "value": "50-60%"}, {"measurement": "VHL-reconstituted cells dead", "setting": "[5]; 50 nM", "value": "< 10", "unit": "%"}, {"measurement": "dead VHL-reconstituted cells", "setting": "[5]; 100 nM", "value": "less than 25%"}, {"measurement": "half-life in humans", "setting": "[6]; dosed subcutaneously", "value": 7, "unit": "h"}, {"measurement": "plasma concentration reached in patients", "setting": "[6]; treatment of CML", "value": "~ 50 nM"}]}]}
